Source: patent EP0233461B2, “4,5,6-Substituted-2-pyrimidinamines” (AMERICAN CYANAMID COMPANY, priority 1986, dated 1987)
Structures can show the parent of a compound that is named as a salt.

Tested on: human basophils
Assay: Inhibition of histamine release from immunologically stimulated human basophils
Assay type: cell-based
Settings: Homo sapiens, concentration causing 50% inhibition of histamine release, by linear regression; active if IC50 ≦ 48 µM
Method in brief: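 Leukocytes from sedimented human blood, washed in Tris-A and resuspended in Tris-ACM, were challenged with anti-IgE or antigen, with or without compound, for 60 min at 37 °C. Released histamine was measured fluorometrically after OPT derivatization and expressed as percent of total (perchloric acid lysate), corrected for spontaneous release.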

`COc1ccc(Nc2nccc(-c3cccnc3)n2)cc1` [N-(4-Methoxyphenyl)-4-(3-pyridinyl)-2-pyrimidinamine, sulfate] and `c1ccc(Nc2nccc(-c3cccnc3)n2)cc1` [N-Phenyl-4-(3-pyridinyl)-2-pyrimidinamine, sulfate] cannot be ordered by IC50: < 48000 nM for the first, 3000 nM for the second.

Same assay, conditions: Homo sapiens, concentration causing 50% inhibition of histamine release, by linear regression; active if IC50 ≦ 48 µM; read-out: IC50

First: CCc1ccc(Nc2nccc(-c3ccccn3)n2)cc1 [N-(4-Ethylphenyl)-4-(2-pyridinyl)-2-pyrimidinamine]
Second: COc1ccc(Nc2nccc(-c3ccccn3)n2)cc1 [N-(4-Methoxyphenyl)-4-(2-pyridinyl)-2-pyrimidinamine]
The IC50 of the first is 4-fold lower: 2100 nM for the first, 8300 nM for the second.

`CCc1ccc(Nc2nccc(-c3cccnc3)n2)cc1` [N-(4-Ethylphenyl)-4-(3-pyridinyl)-2-pyrimidinamine] and `Fc1ccc(Nc2nccc(-c3cccnc3)n2)cc1` [N-(4-Fluorophenyl)-4-(3-pyridinyl)-2-pyrimidinamine] cannot be ordered by IC50: < 48000 nM for the first, < 48000 nM for the second.

Going from `CCc1ccc(Nc2nccc(-c3cc[n+]([O-])cc3)n2)cc1` [N-(4-Ethylphenyl)-4-(4-pyridinyl)-2-pyrimidinamine, pyridine-1-oxide] to `CCc1ccc(Nc2nccc(-c3ccncc3)n2)cc1` [N-(4-Ethylphenyl)-4-(4-pyridinyl)-2-pyrimidinamine], the IC50 falls from 17700 nM to 7700 nM (2.3-fold).

`CCc1ccc(Nc2nccc(-c3ccnc4ccccc34)n2)cc1` [N-(4-Ethylphenyl)-4-(4-quinolinyl)-2-pyrimidinamine] and `c1ccc(Nc2nccc(-c3ccnc4ccccc34)n2)cc1` [N-Phenyl-4-(4-quinolinyl)-2-pyrimi-dinamine] are within 1.5-fold of each other in IC50: 4000 nM for the first, 3000 nM for the second.

First: CCc1ccc(Nc2nccc(-c3ccc(C)s3)n2)cc1 [N-(4-Ethylphenyl)-4-(5-methyl-2-thienyl)-2-pyrimidinamine]
Second: CCc1ccc(Nc2nccc(-c3ccc(C)nc3)n2)cc1 [N-(4-Ethylphenyl)-4-(6-methyl-3-pyridinyl)-2-pyrimidinamine]
The IC50 of the first is 2.7-fold higher: 36300 nM for the first, 13400 nM for the second. The second is the more potent here.

`CCc1ccc(Nc2nccc(-c3cnccn3)n2)cc1` [N-(4-Ethylphenyl)-4-pyrazinyl-2-pyrimidinamine] and `CCc1ccc(Nc2ncc(C)c(-c3ccncc3)n2)cc1` [N-(4-Ethylphenyl)-5-methyl-4-(4-pyridinyl)-2-pyrimidinamine] cannot be ordered by IC50: 2800 nM for the first, < 48000 nM for the second.

First: CCc1ccc(Nc2nc(C)cc(-c3ccc(C)nc3)n2)cc1 [N-(4-Ethylphenyl)-6-methyl-4-(6-methyl-3-pyridinyl)-2-pyrimidinamine]
Second: CNc1ccc(Nc2nccc(-c3cccnc3)n2)cc1 [N-Methyl-N'-[4-(3-pyridinyl)-2-pyrimidinyl]-1,4-benzenediamine]
The IC50 of the first is 9.1-fold higher: 19100 nM for the first, 2100 nM for the second. The second is the more potent here.

Compared with `Fc1ccc(Nc2nccc(-c3ccco3)n2)cc1` [N-(4-Fluorophenyl)-4-(2-furanyl)-2-pyrimidinamine], `Fc1ccc(Nc2nccc(-c3ccncc3)n2)cc1` [N-(4-Fluorophenyl)-4-(4-pyridinyl)-2-pyrimidinamine] is 7-fold lower in IC50: 13300 nM for the first, 1900 nM for the second.

First: COc1ccc(Nc2nccc(-c3cccs3)n2)cc1 [N-(4-Methoxyphenyl)-4-(2-thienyl)-2-pyrimidinamine]
Second: COc1ccc(Nc2nccc(-c3ccsc3)n2)cc1 [N-(4-Methoxyphenyl)-4-(3-thienyl)-2-pyrimidinamine]
The IC50 of the first is 4-fold lower: 3900 nM for the first, 15600 nM for the second. The first is the more potent here.

Going from `COc1ccc(Nc2nccc(-c3ccncc3)n2)cc1` [N-(4-Methoxyphenyl)-4-(4-pyridinyl)-2-pyrimidinamine] to `CC(=O)N(C)c1ccc(Nc2nccc(-c3ccncc3)n2)cc1` [N-Methyl-N-[4-[[4-(4-pyridinyl)-2-pyrimidinyl]amino]phenyl]acetamide], the IC50 falls from 1000 nM to 100 nM (10-fold).

Going from `c1ccc(-c2ccnc(NC3CCCC3)n2)nc1` [N-Cyclopentyl-4-(2-pyridinyl)-2-pyrimidinamine] to `CNc1ccc(Nc2nccc(-c3ccccn3)n2)cc1` [N-Methyl-N'-[4-(2-pyridinyl)-2-pyrimidinyl]-1,4-benzenediamine], the IC50 falls from 2200 nM to 1400 nM (1.6-fold). The second is the more potent here.

Compared with `CNC(=O)c1ccc(Nc2nccc(-c3cccnc3)n2)cc1` [N-Methyl-4-[[4-(3-pyridinyl)-2-pyrimidinyl]amino]benzamide], `CC(=O)N(C)c1ccc(Nc2nccc(-c3cccnc3)n2)cc1` [N-Methyl-N-[4-[[4-(3-pyridinyl)-2-pyrimidinyl]amino]phenyl]acetamide] is 4.2-fold lower in IC50: 4600 nM for the first, 1100 nM for the second.

First: CC(=O)N(C)c1ccc(Nc2nccc(-c3ccccn3)n2)cc1 [N-Methyl-N-[4-[[4-(2-pyridinyl)-2-pyrimidinyl]amino]phenyl]acetamide]
Second: CC(=O)Nc1ccc(Nc2nccc(-c3ccncc3)n2)cc1C [N-[2-Methyl-4-[[4-(4-pyridinyl)-2-pyrimidinyl]amino]phenyl]acetamide]
The IC50 of the first is 2-fold lower: 600 nM for the first, 1200 nM for the second.

Compared with `c1ccc(Nc2nccc(-c3cccs3)n2)cc1` [N-Phenyl-4-(2-thienyl)-2-pyrimidinamine], `CC(N)c1cccc(Nc2nccc(-c3cccnc3)n2)c1` (stereo not shown) [N-[3-(1-Aminoethyl)phenyl)-4-(3-pyridinyl)-2-pyrimidinanine, trihydrochloride] is 6.2-fold lower in IC50: 31700 nM for the first, 5100 nM for the second.

First: CC(NC=O)c1cccc(Nc2nccc(-c3cccnc3)n2)c1 (stereo not shown) [N-[1-[3-[[4-(3-Pyridinyl)-2-pyrimidinyl]amino]phenyl]ethyl]formamide]
Second: CC(NC=O)c1ccc(Nc2nccc(-c3cccnc3)n2)cc1 (stereo not shown) [N-[1-[4-[[4-(3-Pyridinyl)-2-pyrimidinyl]amino]phenyl]ethyl]formamide]
The IC50 of the first is 12-fold higher: 4600 nM for the first, 400 nM for the second.

In the case of `CCN(CC)CCNC(=O)c1ccc(Nc2nccc(-c3cccnc3)n2)cc1` [N-[2-(Diethylamino)ethyl]-4-[[4-(3-pyridinyl)-2-pyrimidinyl]amino]benzamide], the IC50 is reported as 800 nM.

Same assay, conditions: concentration causing 50% inhibition of histamine release, by linear regression; active if IC50 ≦ 48 µM; dihydrochloride; read-out: IC50

`c1ccc(Nc2nccc(-c3ccncc3)n2)cc1` [N-Phenyl-4-(4-pyridinyl)-2-pyrimidinamine, dihydrochloride] showed an IC50 of 3000 nM.

Same assay, conditions: concentration causing 50% inhibition of histamine release, by linear regression; active if IC50 ≦ 48 µM; dinitrate

With `c1ccc(Nc2nccc(-c3ccncc3)n2)cc1` [N-Phenyl-4-(4-pyridinyl)-2-pyrimidinamine, dinitrate] the IC50 was 1200 nM.

Same assay, conditions: concentration causing 50% inhibition of histamine release, by linear regression; active if IC50 ≦ 48 µM; phosphate; read-out: IC50

`COc1ccc(Nc2nccc(-c3cccnc3)n2)cc1` [N-(4-Methoxyphenyl)-4-(3-pyridinyl)-2-pyrimidinamine, phosphate] and `c1ccc(Nc2nccc(-c3cccnc3)n2)cc1` [N-Phenyl-4-(3-pyridinyl)-2-pyrimidinamine, phosphate] are within 1.5-fold of each other in IC50: 3200 nM for the first, 2700 nM for the second.

`c1ccc(Nc2nccc(-c3ccncc3)n2)cc1` [N-Phenyl-4-(4-pyridinyl)-2-pyrimidinamine, phosphate] was tested, and the IC50 was 3300 nM.

Same assay, conditions: concentration causing 50% inhibition of histamine release, by linear regression; active if IC50 ≦ 48 µM; read-out: IC50

First: COc1ccc(Nc2nccc(-c3cccnc3)n2)cc1 [N-(4-Methoxyphenyl)-4-(3-pyridinyl)-2-pyrimidinamine]
Second: c1ccc(Nc2nccc(-c3cccnc3)n2)cc1 [N-Phenyl-4-(3-pyridinyl)-2-pyrimidinamine]
The IC50 of the first is 1.6-fold higher: 1400 nM for the first, 900 nM for the second. The second is the more potent here.

In the case of `c1ccc(Nc2nccc(-c3ccncc3)n2)cc1` [N-Phenyl-4-(4-pyridinyl)-2-pyrimidinamine, (Z)-2-butenedioat] [N-Phenyl-4-(4-pyridinyl)-2-pyrimidinamine, (Z)-2-butenedioate (1:1)], the IC50 is reported as 1000 nM.
`c1ccc(Nc2nccc(-c3ccncc3)n2)cc1` [N-Phenyl-4-(4-pyridinyl)-2-pyrimidinamine, compound with 2-h] [N-Phenyl-4-(4-pyridinyl)-2-pyrimidinamine, compound with 2-hydroxy-1,2,3-propanetricarboxylate (2:1)] gave an IC50 of 3500 nM.
`c1ccc(Nc2nccc(-c3ccncc3)n2)cc1` [N-Phenyl-4-(4-pyridinyl)-2-pyrimidinamine] was tested, and the IC50 was 900 nM.
